Data on 6 compounds can be found in patent US20150031734A1, “PHARMACEUTICAL COMPOSITION CONTAINING MIRABEGRON” (ASTELLAS PHARMA INC., priority 2012, published 2015).

Converted amounts (≈) assume the structure as drawn.

Series [1] can be described thus: Pharmacokinetics test (dogs), fasted and fed, Experimental Example 4. The class given is in vivo, male beagle dogs. Conditions: for AUC0-10 h / Cmax: oral, 50 mg as mirabegron, plasma. As to the method: The rates of decrease of Cmax and AUC are calculated by the following equations:
Rd(Cmax)=[1−Cmax(Fed)/Cmax(Fasted)]×100
Rd(AUC)=[1−AUC(Fed)/AUC(Fasted)]×100
Rd(Cmax): Rate of decrease of Cmax (%) Cmax(Fed): Cmax in administration after food intake Cmax(Fasted): Cmax in administration in the fasted state Rd(AUC): Rate of decrease of AUC (%) AUC(Fed): AUC in administration after food intake AUC(Fasted): AUC in administration in the fasted state
The resulting suspension was orally administered to male beagle dogs using a sonde in a fasted state (Fasted) or after 30 minutes from the intake of a meal (Fed), and the drug concentration in the plasma was measured after predetermined periods of time. As the meal, 50 g of meat feed was used.

Series [2] in a line: Stability of stored suspension by dissolution test, Experimental Example 5. Conditions: vs before storage. It counts as physicochemical. As to the method:
The expression “the dissolution or leakage of mirabegron is reduced or inhibited” as used herein means when the pharmaceutical composition of the present invention, which was dispersed in a solvent and has been stored, is subjected to a dissolution test in accordance with the dissolution test, method 2 (paddle method) described in the Japanese Pharmacopoeia, using 900 mL of an appropriate test solution (for example, the second fluid (JP2) described in the dissolution test of the Japanese Pharmacopoeia), for example, at a paddle rotation speed of 50-200 rpm, the change in dissolution rate is 15% or less at the maximum in comparison with the value before the storage. The change in dissolution rate is 10% or less in another embodiment, 5% or less in still another embodiment, and 3% or less in still another embodiment.
These bottles were allowed to stand in a cool place (5° C.) or under room temperature conditions for a month. The xanthan gum solution was prepared by adding xanthan gum to water at a concentration of 1 W/W % while stirring. After the storage, each suspension (25 mg as the amount of mirabegron) was used to carry out a dissolution test in accordance with the dissolution test, method 2 (paddle method) described in the Japanese Pharmacopoeia. As the test solution, 900 mL of the second fluid (JP2) described in the disintegration test of the Japanese Pharmacopoeia was used. […]

Series [3] can be described thus: Drug concentration (solubility) in supernatant, Experimental Example 1. The class given is physicochemical. Conditions: shaken at room temperature for 24 hours, 150 mg as mirabegron; for solubility thermodynamic at 24 h: thermodynamic from solid. As to the method:
The drug concentration (solubility) of each compound to be assayed was measured in accordance with the following method.
After the shaking, the mixtures were centrifuged at 3000 rpm for 15 minutes, and the drug concentration in each supernatant was measured.

Series [4] can be described thus: Dissolution test, paddle method, JP2, 50 rpm, Experimental Example 3. Conditions: 900 mL JP2, paddle 50 rpm. It counts as physicochemical. On the procedure:
The acid addition salts of the present invention prepared in Examples 4 and 5 (25 mg as the amount of mirabegron) were used to carry out a dissolution test in accordance with the dissolution test, method 2 (paddle method) described in the Japanese Pharmacopoeia. As the test solution, 900 mL of the second fluid (JP2) described in the disintegration test of the Japanese Pharmacopoeia was used. The paddle rotation speed was 50 rpm. The same dissolution test was carried out using the mixtures prepared in Comparative Examples 2 to 5.

[5] abbreviates: in comparison with the fasted state.

Turning to `CCCCCCCCCCCCOS(=O)(=O)O.CCCCCCCCCCCCOS(=O)(=O)O.Nc1nc(CC(=O)Nc2ccc(CCNC[C@H](O)c3ccccc3)cc2)cs1` [Example 1], in series [1] (Fasted), the AUC0-10 h turned out to be 1027 ± 208 ng·h/mL and the Cmax (as a rule, the highest concentration seen after dosing) came out at 295 ± 166 ng/mL. Moreover, in series [1] (Fed (30 minutes after meal)), the AUC0-10 h was 833 ± 122 ng·h/mL and the highest concentration (Cmax) was found to be 229 ± 86 ng/mL. Moreover, in series [1] (setting [5]), the “rate of decrease of AUC in the fed state” value worked out at 19% and the “rate of decrease of Cmax in the fed state” value was found to be 22%. Also, the “change in dissolution rate at the maximum” value in series [2] (suspension in xanthan gum solution stored at room temperature for a month) turned out to be 0.8%. Moreover, the “change in dissolution rate” value in series [2] (suspension in xanthan gum solution stored in a cool place (5° C.) for a month) is recorded as “no change in dissolution rate was observed”.

For `CCCCCCCCCCCCCCOS(=O)(=O)O.CCCCCCCCCCCCCCOS(=O)(=O)O.Nc1nc(CC(=O)Nc2ccc(CCNC[C@H](O)c3ccccc3)cc2)cs1` [Example 2], the “Drug concentration in supernatant” value in series [3] (10^−1 mol/L HCl) stood at 19000 ng/mL; in series [3] (10^−3 mol/L HCl) it was 30000 ng/mL; in series [3] (Purified water) it was 10000 ng/mL.

Consider `CCCCCCCCCCCCCCCCOS(=O)(=O)O.CCCCCCCCCCCCCCCCOS(=O)(=O)O.Nc1nc(CC(=O)Nc2ccc(CCNC[C@H](O)c3ccccc3)cc2)cs1` [Example 3], for which the “Drug concentration in supernatant” value came out at 64000 ng/mL in series [3] (10^−1 mol/L HCl), 21000 ng/mL in series [3] (10^−3 mol/L HCl) and 4000 ng/mL in series [3] (Purified water).

As to `CCCCCCCCCCCCOS(=O)(=O)O.CCCCCCCCCCCCOS(=O)(=O)O.Nc1nc(CC(=O)Nc2ccc(CCNCC(O)c3ccccc3)cc2)cs1` (stereo not drawn) [Example 4], the Dissolution rate in series [4] (2 min.) came out at 5.4%; in series [4] (15 min.) it was 14.4%.

Take `CCCCCCCCCCCCOS(=O)(=O)O.Nc1nc(CC(=O)Nc2ccc(CCNCC(O)c3ccccc3)cc2)cs1` (stereo not drawn) [Example 5]: the values for the Dissolution rate in series [4] (2 min.) and in series [4] (15 min.) were 12.8% and 41.3%, respectively.

As to `Nc1nc(CC(=O)Nc2ccc(CCNC[C@H](O)c3ccccc3)cc2)cs1` [Mirabegron, (R)-2-(2-aminothiazol-4-yl)-4′-{2-[(2-hydroxy-2-phenylethyl)amino]ethyl}acetanilide], the thermodynamic solubility (commonly the concentration in solution at equilibrium with solid) at 24 h in series [3] (10^-1 mol/L hydrochloric acid, simulated gastric fluid, 10^−1 mol/L HCl) is 12900 µg/mL (≈ 32600 µM); in series [3] (10^-3 mol/L hydrochloric acid, aqueous buffer, 10^−3 mol/L HCl), 501 µg/mL (≈ 1260 µM); in series [3] (Purified water), 116 µg/mL (≈ 293 µM).
